Assay: Stability to water of a deposition film
Details: for State of the film after 5 min (stability to water): 100 nm deposition film on glass substrate, water dropped on film, state after 5 minutes measured with thickness profiler (Alpha-Step); for Dissolution of the film in water: deposition film in contact with water, summary of the Table 1 test
Procedure: The stability to water of the metal complex compound was examined. A deposition film was formed to a thickness of 100 nm on a glass substrate, and water was dropped on the deposition film. After 5 minutes, the state of the film was measured with a thickness profiler (Alpha-Step). Also, the stability to water of lithium fluoride and cesium fluoride, which are generally used as an electron injection material, were examined for comparison.

Row | Compound | State of the film after 5 min (stability to water) | Dissolution of the film in water
1 | [F-].[Li+] [compound 1, lithium fluoride] | Dissolved | dissolved in water immediately
2 | [Cs+].[F-] [compound 2, cesium fluoride] | Dissolved | dissolved in water immediately

— patent US20150311441A1, “METAL COMPLEX COMPOUND, AND ORGANIC LIGHT-EMITTING ELEMENT AND DISPLAY DEVICE CONTAINING THE SAME” (CANON KABUSHIKI KAISHA, priority 2014, published 2015)
